From paper PMC12797228 (ACS Infectious Diseases, 2025)
Values after ≈ are worked out from the molar mass of the structure shown. Values joined by “and” are separate entries in the source; they are usually repeats but may differ in a detail not shown here. Identical values can stand only once. Like-named read-outs stand apart in the source and are kept apart here.

Key:
[1] = target: T1, wild-type B. anthracis gyrase (Bacillus anthracis, UniProt A0A6H3A7B1+Q9X3Y6); test: biochemical; settings: EC50 (concentration that induces 50% maximal DNA cleavage)
T1 sequence (A0A6H3A7B1 1-823): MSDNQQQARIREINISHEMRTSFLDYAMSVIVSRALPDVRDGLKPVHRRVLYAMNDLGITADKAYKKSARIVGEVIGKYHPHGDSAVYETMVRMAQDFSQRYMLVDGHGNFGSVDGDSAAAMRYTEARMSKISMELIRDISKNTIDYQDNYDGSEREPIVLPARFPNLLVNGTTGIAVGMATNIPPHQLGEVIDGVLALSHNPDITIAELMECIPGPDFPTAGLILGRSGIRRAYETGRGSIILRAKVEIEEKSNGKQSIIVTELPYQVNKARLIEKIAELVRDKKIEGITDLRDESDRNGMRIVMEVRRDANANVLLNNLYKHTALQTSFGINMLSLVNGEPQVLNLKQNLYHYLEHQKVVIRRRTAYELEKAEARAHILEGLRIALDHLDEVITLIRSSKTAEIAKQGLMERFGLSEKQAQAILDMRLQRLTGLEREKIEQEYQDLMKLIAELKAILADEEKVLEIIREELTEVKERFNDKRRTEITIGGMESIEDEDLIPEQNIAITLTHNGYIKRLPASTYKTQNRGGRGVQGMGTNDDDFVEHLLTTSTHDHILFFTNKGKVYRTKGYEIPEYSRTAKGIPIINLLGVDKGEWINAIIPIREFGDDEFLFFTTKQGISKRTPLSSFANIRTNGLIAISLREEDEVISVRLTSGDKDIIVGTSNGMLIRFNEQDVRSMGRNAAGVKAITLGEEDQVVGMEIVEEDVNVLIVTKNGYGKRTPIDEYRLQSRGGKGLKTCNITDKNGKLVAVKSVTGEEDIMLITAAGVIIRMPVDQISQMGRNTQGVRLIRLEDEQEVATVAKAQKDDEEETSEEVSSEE
T1 sequence (Q9X3Y6 whole entry): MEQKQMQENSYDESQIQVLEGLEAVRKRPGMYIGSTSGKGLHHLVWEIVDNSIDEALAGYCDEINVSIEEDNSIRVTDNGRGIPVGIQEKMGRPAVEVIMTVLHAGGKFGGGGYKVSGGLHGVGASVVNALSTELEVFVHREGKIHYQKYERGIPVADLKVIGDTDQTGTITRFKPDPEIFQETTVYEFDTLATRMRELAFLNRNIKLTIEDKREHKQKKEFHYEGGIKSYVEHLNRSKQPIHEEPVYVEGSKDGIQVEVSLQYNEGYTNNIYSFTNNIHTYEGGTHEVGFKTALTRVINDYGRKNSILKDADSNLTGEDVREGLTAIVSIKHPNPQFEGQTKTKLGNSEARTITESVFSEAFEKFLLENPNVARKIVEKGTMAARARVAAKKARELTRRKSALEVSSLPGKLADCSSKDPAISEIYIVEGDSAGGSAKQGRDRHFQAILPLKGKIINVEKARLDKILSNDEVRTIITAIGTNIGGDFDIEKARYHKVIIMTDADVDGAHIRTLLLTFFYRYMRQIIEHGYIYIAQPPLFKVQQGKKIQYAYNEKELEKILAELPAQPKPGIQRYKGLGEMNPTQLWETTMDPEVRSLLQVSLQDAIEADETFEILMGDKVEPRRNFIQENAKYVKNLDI

in vitro = settings: plasma
[2] = tested on: B. anthracis (Ames strain); set-up: species or system BALB/c mice; settings: mouse, in vivo
[3] = mouse, in vivo, po, 100 mg/kg
in vivo = settings: female, BALB/c, mouse
[4] = female, BALB/c, mouse, in vivo
[5] = target: T2, wild-type B. anthracis topoisomerase IV (Bacillus anthracis, UniProt A0A6H3AG07+A0AAC8SCF4); test: biochemical; settings: IC50, inhibition of DNA decatenation
T2 sequence (A0A6H3AG07 1-807): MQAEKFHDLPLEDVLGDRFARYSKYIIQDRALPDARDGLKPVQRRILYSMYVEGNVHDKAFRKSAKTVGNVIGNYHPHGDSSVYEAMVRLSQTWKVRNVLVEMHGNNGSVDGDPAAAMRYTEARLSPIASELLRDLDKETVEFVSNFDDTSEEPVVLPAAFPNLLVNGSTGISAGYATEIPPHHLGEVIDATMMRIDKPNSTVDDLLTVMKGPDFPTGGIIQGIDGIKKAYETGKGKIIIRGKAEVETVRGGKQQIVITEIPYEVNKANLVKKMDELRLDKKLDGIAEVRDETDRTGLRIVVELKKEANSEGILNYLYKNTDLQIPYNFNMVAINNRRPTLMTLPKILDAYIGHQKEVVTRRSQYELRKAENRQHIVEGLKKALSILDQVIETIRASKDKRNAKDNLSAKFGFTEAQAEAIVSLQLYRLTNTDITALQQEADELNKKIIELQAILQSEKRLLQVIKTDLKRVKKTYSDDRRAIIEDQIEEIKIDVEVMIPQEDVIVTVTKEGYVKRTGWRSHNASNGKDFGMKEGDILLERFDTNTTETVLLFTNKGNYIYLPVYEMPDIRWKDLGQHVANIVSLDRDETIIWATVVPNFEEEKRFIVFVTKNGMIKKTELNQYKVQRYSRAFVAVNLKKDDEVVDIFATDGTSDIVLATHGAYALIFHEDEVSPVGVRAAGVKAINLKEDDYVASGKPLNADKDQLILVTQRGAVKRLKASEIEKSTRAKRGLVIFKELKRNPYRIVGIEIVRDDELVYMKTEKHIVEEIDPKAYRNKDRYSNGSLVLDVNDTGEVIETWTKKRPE
T2 sequence (A0AAC8SCF4 1-654): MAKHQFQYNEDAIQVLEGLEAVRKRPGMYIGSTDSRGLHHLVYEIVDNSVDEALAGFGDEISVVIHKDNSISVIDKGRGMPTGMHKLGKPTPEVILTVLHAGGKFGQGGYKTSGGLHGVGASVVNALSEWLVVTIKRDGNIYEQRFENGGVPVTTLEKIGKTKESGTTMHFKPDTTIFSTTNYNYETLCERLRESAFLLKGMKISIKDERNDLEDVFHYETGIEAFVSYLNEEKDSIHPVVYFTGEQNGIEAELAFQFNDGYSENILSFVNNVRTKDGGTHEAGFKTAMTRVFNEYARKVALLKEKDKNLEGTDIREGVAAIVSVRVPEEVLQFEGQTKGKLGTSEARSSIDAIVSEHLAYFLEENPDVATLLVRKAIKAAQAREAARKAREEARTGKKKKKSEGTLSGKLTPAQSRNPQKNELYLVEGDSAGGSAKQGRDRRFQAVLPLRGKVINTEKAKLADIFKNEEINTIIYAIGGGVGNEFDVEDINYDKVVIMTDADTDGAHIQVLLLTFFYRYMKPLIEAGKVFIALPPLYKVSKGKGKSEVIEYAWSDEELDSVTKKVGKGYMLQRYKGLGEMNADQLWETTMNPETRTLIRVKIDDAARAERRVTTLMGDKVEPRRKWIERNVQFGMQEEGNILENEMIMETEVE

[6] = tested on: 30-strain panel of B. anthracis; test: microbe, parasite or virus in culture; type: cell-based, Bacillus anthracis; settings: for MIC50 / MIC90: Bacillus anthracis
[7] = target: T1, wild-type B. anthracis gyrase; test: biochemical; settings: IC50, inhibition of DNA supercoiling
[8] = target: T2, wild-type B. anthracis topoisomerase IV; test: biochemical; settings: EC50, DNA cleavage
B. anthracis = settings: rabbit, in vivo; cited from earlier work

COc1ccc2ncc(F)c(C[C@H](O)[C@H]3OC[C@H](NCc4cnc5c(n4)NC(=O)CO5)CO3)c2n1 [OSUAB-0284, 6-(((trans-2-((S)-2-(3-fluoro-6-methoxy-1,5-naphthyridin-4-yl)-1-hydroxyethyl)-1,3-dioxan-5-yl)amino)methyl)-2H-pyrazino[2,3-b][1,4]oxazin-3(4H)-one]
EC50 [1]: 0.7 µM and ~0.7 µM | fraction unbound (in vitro): 0.31 | Lung total bacterial burden and spore counts compared with the ciprofloxacin group [2]: No significant differences | Survival [2]: 100% and 90% and 90–100% | Adverse events or cage-side observations [3]: No adverse events or cage-side observations were noted | Kp (in vivo): 0.36 to 0.53 | half-life (in vivo): 2.6 h | bioavailability (in vivo; 10 mg/kg): 80.6% | AUC(0-inf) (in vivo; iv, 10 mg/kg): 11400 ng·h/mL | AUC(0-t) (in vivo; iv, 10 mg/kg): 10800 ng·h/mL | Cmax (in vivo; iv, 10 mg/kg): 17600 ng/mL | Tmax (in vivo; iv, 10 mg/kg): 0.0833 h | half-life (in vivo; iv, 10 mg/kg): 2.6 h | AUC(0-inf) (in vivo; po, 10 mg/kg): 9160 ng·h/mL | AUC(0-t) (in vivo; po, 10 mg/kg): 8470 ng·h/mL | Cmax (in vivo; po, 10 mg/kg): 6280 ng/mL | Tmax (in vivo; po, 10 mg/kg): 0.25 h | half-life (in vivo; po, 10 mg/kg): 2.6 h | AUC(0-inf) (in vivo; po, 50 mg/kg): 70200 ng·h/mL | AUC(0-t) (in vivo; po, 50 mg/kg): 63000 ng·h/mL | Cmax (in vivo; po, 50 mg/kg): 50300 ng/mL | Tmax (in vivo; po, 50 mg/kg): 0.25 h | half-life (in vivo; po, 50 mg/kg): 2.6 h | dose-corrected exposure, higher vs lower dose group [4]: 1.5 fold | Lung AUC0-last ([4]; iv, 10 mg/kg): 4,830 ng*h/mL | Lung AUCinf ([4]; iv, 10 mg/kg): 5,033 ng*h/mL | Lung AUC0-last ([4]; po, 10 mg/kg): 3,314 ng*h/mL | Lung AUCinf ([4]; po, 10 mg/kg): 3,615 ng*h/mL | Lung AUC0-last ([4]; po, 50 mg/kg): 37,227 ng*h/mL | Lung AUCinf ([4]; po, 50 mg/kg): 44,292 ng*h/mL | IC50 [5]: ~0.1 µM and 0.1 µM | Range of MIC values [6]: ≤0.03 to 4 µg/mL | MIC50 [6]: 0.06 µg/mL (≈ 0.123 µM) | MIC90 [6]: 0.25 µg/mL (≈ 0.514 µM) | IC50 [7]: ~6.3 µM and 6.3 µM | EC50 [8]: 0.04 µM and ~0.04 µM

O=c1ccc2ncc(=O)n3c2n1C[C@H]3CN1CCC(NCc2cc3c(cn2)OCCC3)CC1 [Gepotidacin, gepotidacin, reference compound]
EC50 [1]: 0.8 µM and ~0.8 µM | Rabbits that survived for at least 30 days (B. anthracis): Ten out of 11 | IC50 [5]: ~0.2 µM and 0.2 µM | Range of MIC values [6]: 0.12 to 8 µg/mL | MIC50 [6]: 0.5 µg/mL (≈ 1.11 µM) | MIC90 [6]: 0.5 µg/mL (≈ 1.11 µM) | IC50 [7]: ~23.2 µM and 23.2 µM

O=C(O)c1cn(C2CC2)c2cc(N3CCNCC3)c(F)cc2c1=O [Ciprofloxacin, ciprofloxacin]
Mice that survived to study termination on day 30 (of 10) [2]: 10 | IC50 [5]: ~178 µM and 178 µM | IC50 [7]: ~118 µM and 118 µM
